According to patent publication EP4644375A1, “SUBSTITUTED HYDROQUINOLINES FOR THE TREATMENT OF GLIOBLASTOMA MULTIFORME” (Molius Saglik Teknolojileri Anonim Sirketi, priority 2024, dated 2025):

Columns and labels:
U87-MG human glioma cell = assay: Cell proliferation analysis (MTT); format: cell-based; settings: 10 µM, two days, MTT; for activity at 10 µM / inhibition at 10 µM: Homo sapiens, U-87 MG, 48 h
Procedure: (§1) U87-MG and U138-MG human glioma cell, were incubated with 10% fetal bovine serum (FBS) (Gibco, 10500-064), 1% L-glutamine (Gibco, 25030-024), in a humidified incubator with 5% CO2 at 37 °C. The cells were contained in DMEM High Glucose (Gibco, 41966-029) supplemented with 1% penicillin-streptomycin (P/S) (Gibco 15140-122) solution. The cytotoxic effects of the target compounds on U87-MG and U138-MG cell lines were assessed using the MTT (Thiazolyl Blue Tetrazolium Bromide) method. 7×10^3 cells were seeded into a 96-well plate in 100 µl DMEM High Glucose 10% FBS and 1% P/S. 24 hours after cell incubation, each target compound was added at a dose of 10 µM and the drug treatment was carried out for two days. After the incubation period, 10 µL of MTT solution was added to each well (5 mg/ml in PBS). After 2 hours, MTT solutions were removed from the wells. Then, 100 µl DMSO was added, and mixed to dissolve the formazan crystals. Cell proliferation was analysed by measuring the absorbance of dissolved formazan at a wavelength of 570 nm.
(§2) IC50 values were determined using the same method as above wherein the cells were treated with the target compounds at different doses.

[1] = tested on: U138-MG human glioma cell; assay: Cell proliferation analysis (MTT); format: cell-based; settings: 10 µM, two days, MTT; for activity at 10 µM / inhibition at 10 µM: Homo sapiens, 48 h
Procedure: as §1, §2

Compound	activity at 10 µM (U87-MG human glioma cell)	inhibition at 10 µM (U87-MG human glioma cell)	activity at 10 µM [1]	inhibition at 10 µM [1]	Cell Proliferation (%) (U87-MG human glioma cell)	Inhibition (%) (U87-MG human glioma cell)	Cell Proliferation (%) [1]	Inhibition (%) [1]
O=C1CCc2cc(OCC(=O)Oc3ccccc3)ccc2N1 [TR-G004, phenyl 2-((2-oxo-1,2,3,4-tetrahydroquinolin-6-yl)oxy)acetate]	73%	27%	88%	12%				
COc1ccc(C=NNC(=O)COc2ccc3c(c2)CCC(=O)N3)c(OC)c1 [TR-G022, N'-(2,4-dimethoxybenzylidene)-2-((2-oxo-1,2,3,4-tetrahydroquinolin-6-yl)oxy)acetohydrazide]	98%	2%	75%	25%				
CN1CCN(c2ccc(NC(=O)COc3ccc4c(c3)CCC(=O)N4)cc2)CC1 [TR-G043, N-(4-(4-methylpiperazin-1-yl)phenyl)-2-((2-oxo-1,2,3,4-tetrahydroquinolin-6-yl)oxy)acetamide]	73%	27%	74%	26%				
Cc1[nH]c2ccccc2c1/C=N/NC(=O)COc1ccc2c(c1)CCC(=O)N2 [TR-G027, (E)-N'-((2-methyl-1H-indol-3-yl)methylene)-2-((2-oxo-1,2,3,4-tetrahydroquinolin-6-yl)oxy)acetohydrazide]	66%	34%	54%	46%				
O=C1CCc2cc(OCCCCCCOC3CCCCO3)ccc2N1 (stereo not drawn) [TR-G031, 6-((6-((tetrahydro-2H-pyran-2-yl)oxy)hexyl)oxy)-3,4-dihydroquinolin-2(1H)-one]	72%	28%	80%	20%				
Cc1cn(-c2cc(NC(=O)COc3ccc4c(c3)CCC(=O)N4)cc(C(F)(F)F)c2)cn1 [TR-G054, N-(3-(4-methyl-1H-imidazol-1-yl)-5-(trifluoromethyl)phenyl)-2-((2-oxo-1,2,3,4-tetrahydroquinolin-6-yl)oxy)acetamide]	84%	16%	79%	21%				
CC(C)CCN1C(=O)CCc2cc(OCCCCc3nnnn3C3CCCCC3)ccc21 [TR-G101, 6-(4-(1-cyclohexyl-1H-tetrazol-5-yl)butoxy)-1-isopentyl-3,4-dihydroquinolin-2(1H)-one]	76%	24%	76%	24%				
2-oxo-1,2,3,4-tetrahydroquinolin-6-yl diphenylcarbamate [TR-G020]					72%	29%	80%	20%
CCOC(=O)Cn1cc(COc2ccc3c(c2)CCC(=O)N3)nn1 [TR-G033, Ethyl 2-(4-(((2-oxo-1,2,3,4-tetrahydroquinolin-6-yl)oxy)methyl)-1H-1,2,3-triazol-1-yl)acetate]	82%	19%	71%	29%				
2-oxo-1,2,3,4-tetrahydroquinolin-6-yl dimethylcarbamate [TR-G005]					77%	23%	77%	23%
O=C(COc1ccc2c(c1)CCC(=O)N2)N/N=C1\C(=O)Nc2ccccc21 [TR-G038, (Z)-2-((2-oxo-1,2,3,4-tetrahydroquinolin-6-yl)oxy)-N'-(2-oxoindolin-3-ylidene)acetohydrazide]	71%	30%	95%	5%				
O=C(COc1ccc2c(c1)CCC(=O)N2)N/N=C/c1cccc2ccccc12 [TR-G141, (E)-N'-(naphthalen-1-ylmethylene)-2-((2-oxo-1,2,3,4-tetrahydroquinolin-6-yl)oxy)acetohydrazide]	53%	47%	65%	35%				
